Test results from patent US20230143751A1, “Aromatic Compound And Use Thereof In Preparing Antineoplastic Drugs” (Shanghai Zheye Biotechnology Co. Ltd., priority 2020, published 2023).

Key:
NCI-H358 = experiment: Cell proliferation inhibitory activity on NCI-H358, 3D model test (agarose colony formation); assay type: cell-based
In short: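 NCI-H358 cells in soft agarose over a high-concentration agarose base were incubated overnight at 37 °C, then given serially diluted compound in RPMI 1640, with medium changes during CO2 incubation. Colonies were stained with NBT and counted, and IC50 for proliferation inhibition was derived against solvent control.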

[1] = Preliminary safety test, 5-day escalating oral dosing in Balb/c mice; assay type: in vivo
[2] = test system: MIA PaCa-2-derived xenograft tumor; experiment: Pharmacodynamics test of MIA PaCa-2-derived xenograft tumor model in nude mice (test 6); assay type: in vivo

C=CC(=O)N1CCN(c2nc(=O)n(-c3c(C)ccnc3C(C)C)c3nc(-c4ccccc4C=C)c(Cl)cc23)[C@@H](C)C1 [Compound 3-2]
anti-cell proliferation activity against KRAS G12C mutant type cells NCI-H358 (in words) (NCI-H358; 3D model test): significant anti-cell proliferation activity
IC50 (NCI-H358; Homo sapiens, NCI-H358, 3D agarose colony formation, NBT staining): < 50 nM
MTD at 5 days ([1]; both sexes, mouse, in vivo, oral gavage, 5 days, initially suggested, read-out: maximum tolerated dose): > 800 mg/kg
water and food intake, activity and body weight during the administration period (in words) ([1]; oral gavage once a day for 5 days, 200 to 800 mg/kg): no significant abnormality was showed
inhibition effect on the growth of subcutaneously transplanted tumors derived from pancreatic cancer MIA paca-2 cells in nude mice (in words) ([2]; 10 mg/kg QD×15 days): significant inhibition effect
Tumor inhibition rate (%) ([2]; MIA PaCa-2 xenograft, nude mice, 10 mg/kg oral gavage QD×15 days): +++ (“+++” represents a tumor inhibition rate of >80%)
